Source: patent US12564585B2, “Nutraceuticals having sustained release for improved bioavailability and method of production” (BioActives LLC, priority 2013, dated 2026)
Values belong to the molecule of their own block, whether it stands above or below them.

Key:
[1] = PQQ-SR dissolution test (SGF then SIF); format: physicochemical; details: SGF 2 hr then SIF pH 6.5, 20 mg PQQ
Description: The in vitro dissolution study was performed using the Varian 7020 dissolution tester with the basket configuration at 37° C., 100 rpm. The samples equivalent to 20 mg PQQ filled in hard gelatin capsules were used for the study. The capsules were introduced into 750 ml of 0.1N HCl (simulated gastric fluid without enzymes, SGF) maintained at 37° C. At the end of 1 and 2 hrs, 2 ml of the sample was withdrawn and filtered through 10μ-syringe filter. The removed volume was replaced each time with fresh medium. PQQ was determined by spectrophotometry at 330 nm.
At the end of 2 hr, the pH of the medium was adjusted to 6.5 (Simulated intestinal fluid without enzymes, SIF) with an appropriate amount of 0.2M tribasic sodium phosphate solution equilibrated to 37° C., Polysorbate 80 at 0.25% (simulating fed state) dissolved in water was added to the medium. Aliquots were withdrawn at 4, 6, 9, and 12 hrs for analysis as described before and the removed volume was replaced with fresh medium each time.

[2] = PQQ-SR bioavailability pilot human uptake study; format: in vivo; details: free plasma PQQ
Description: PQQ-SR formulation and PQQ powder equivalent to 40 mg PQQ were used for the study. The samples were provided in hard gelatin capsules. The crossover study was done using two healthy subjects. On the day of the study, 7 ml of blood was collected in EDTA tubes to permit establishment of baseline value. PQQ-SR capsules were administered after breakfast and blood samples were drawn as before at 1, 2, 4, 7, and 9 hrs post-dose. The samples were stored on ice protected from light and the plasma was separated by centrifugation within 1 hr of collection and stored at −70° C. until analysis. After a 7-day washout period the protocol was repeated for the control PQQ powder capsules.
Plasma PQQ was extracted using n-butanol and HCl followed by SepPak C-18 clean up of the extract as described by Suzuki et al. (Extractions of pyrroloquinoline quinone from crude biological samples, Suzuki, O., et al., Life Sci., 47: 2135-41, 1990). PQQ was estimated by using the enzymatic method as described by Geiger and Gorisch (Enzymatic determination of pyrroloquinoline quinone using crude membranes from E. coli, Geiger, O. and Gorisch, H., Anal Biochem., 164: 418-23, 1987). The method measures only the free PQQ in the plasma.

[3] = human studies, background; cited from earlier work
[4] = Curcumin-SR dissolution test (SGF then SIF); format: physicochemical; details: simulated gastric and intestinal fluids
Description: The in vitro dissolution study was performed using the Varian 7020 dissolution tester with the basket configuration at 37° C., 100 rpm. The samples equivalent to 25 mg Curcumin filled in hard gelatin capsules were used for the study. The capsules were introduced into 750 ml of 0.1N HCl (simulated gastric fluid without enzymes, SGF) maintained at 37° C. At the end of 1 and 2 hrs, 3 ml of the sample was withdrawn and filtered through 10μ-syringe filter. The removed volume was replaced each time with fresh medium. At the end of 2 hr, the pH of the medium was adjusted to 6.5 (simulated intestinal fluid without enzymes, SIF) with 195 ml of 0.2M tribasic sodium phosphate solution equilibrated to 37° C. Polysorbate 80 dissolved in 55 ml of water was added to a concentration of 0.25% to simulate intestinal fluid. Aliquots were withdrawn at 4, 6, 9, and 12 hrs for analysis, as described before, and the removed volume was replaced with fresh medium each time. The aliquots were diluted with methanol for the HPLC analysis of Curcumin. Curcumin was quantified using reverse-phase HPLC on a Phenomenex Luna column (150×4.6 mm, 5 μm) at room temperature. The samples were eluted using an isocratic mobile phase consisting of 5% acetic acid/45% and acetronitrile/55%. The flow rate was 1 ml/min and detection wavelength was 420 nm. Standard Curcumin from Chromadex was used for quantification. […]

[5] = Curcumin-SR bioavailability pilot human uptake study; format: in vivo; details: plasma Curcumin, 250 mg total Curcuminoids oral, 0-9 hr
Description: Curcumin-SR formulation and Curcumin powder equivalent to 250 mg total Curcuminoids were used for the study. The samples were provided in hard gelatin capsules. The crossover study was done using two healthy subjects who were not using curcumin in their food preparations or consuming Curcumin supplements. On the day of the study, 7 ml of blood was collected in EDTA tubes to permit establishment of baseline value. Curcumin-SR capsules were administered after breakfast and blood samples were drawn as before at 1, 2, 4, 7, and 9 hrs post-dose. The samples were stored on ice protected from light and the plasma was separated by centrifugation within 1 hr of collection and stored at −70° C. until analysis. After a 7-day washout period the protocol was repeated for the control Curcumin powder capsules.
Hydrolysis of Curcumin conjugates and extraction of Curcumin from the plasma were done based on the method described by Vareed et at. (Pharamcokinetics of curcumin conjugate metabolites in healthy human subjects, Cancer Epidemiol Biomarkers, 17: 1411-1417, 2008). One ml of the plasma was incubated with 2000 units of β-glucuronidase and 260 units sulfatase at 37° C. for 3.5 hrs. The samples were extracted three times with ethyl acetate/methanol (95:5) and the solvents were evaporated under nitrogen protected from light. […] Curcumin was quantified using reverse-phase HPLC as described above.

[6] = Resveratrol-SR dissolution test (SGF then SIF); format: physicochemical; details: sink conditions, SGF 2 hr then SIF pH 6.5, 25 mg Resveratrol
Description: The in vitro dissolution study was performed using the Varian 7020 dissolution tester with the basket configuration at 37° C., 100 rpm. The samples equivalent to 25 mg Resveratrol filled in hard gelatin capsules were used for the study. The capsules were introduced into 750 ml of 0.1N HCl (simulated gastric fluid without enzymes, SGF) maintained at 37° C. […] The removed volume was replaced each time with fresh medium. […] Polysorbate 80 dissolved in 55 ml of water was added to a concentration of 0.25% to simulate intestinal fluid. Aliquots were withdrawn at 4, 6, 9, and 12 hrs for analysis as described before and the removed volume was replaced with fresh medium each time. The aliquots were diluted with methanol for HPLC analysis. Resveratrol was quantified using reverse-phase HPLC on a Phenomenex Prodigy column (250×4.6 mm, 5 μm) at room temperature. The samples were eluted using an isocratic mobile phase consisting of 5% acetic acid/55% and methaniol/45%. The flow rate was 1 ml/min and detection wavelength was 306 nm. The retention time for Resveratrol was 7.5 min under these conditions. Standard Resveratrol from Sigma was used for calibration.

[7] = Resveratrol-SR bioavailability pilot human uptake study; format: in vivo; details: plasma free Resveratrol, 500 mg oral, 0-24 hr
Description: Resveratrol-SR formulation and 98% Resveratrol powder equivalent to 500 mg Resveratrol were used for the study. The samples were provided in hard gelatin capsules. The crossover study was done using two healthy subjects who were not consuming Resveratrol supplements. The subjects were asked not to consume Resveratrol containing foods, such as, peanuts grapes and wine, for 48 hours before the study. On the day of the study, 7 ml of blood was collected in EDTA tubes to permit establishment of baseline value. Resveratrol-SR capsules were administered after breakfast and blood samples were drawn as before at 1, 2, 4, 7, 9, and 24 his post-dose. The samples were stored on ice protected from light and the plasma was separated by centrifugation within 1 hr of collection and stored at −70° C. until analysis. After a 7-day washout period the protocol was repeated for the control Resveratrol powder capsules. Plasma total Resveratrol (Resveratrol conjugates and free Resveratrol) and free Resveratrol were determined based on the method described by Meng et al. (Urinary and plasma levels of resveratrol and quercetin in humans, mice and rats after ingestion of pure compounds and grape juice, J. Agric. Food Chem., 52: 935-942, 2004). […] Resveratrol was quantified using reverse-phase HPLC as described above.

dose in solution by 4 hrs [1]: 100% | time by which plasma level reached near baseline [2]: ≤ 9 h | average area under the curve AUC0-9hr ([2]; 40 mg oral, 0-9 hr): 31.41 ng·h/mL | Tmax ([2]; human, 40 mg PQQ oral, two healthy subjects): 2 h
Structure (SMILES): O=C(O)c1cc(C(=O)O)c2c(n1)C(=O)C(=O)c1cc(C(=O)O)[nH]c1-2 [control PQQ powder, Pyrroloquinoline quinone]
time after ingestion at which maximum plasma level was reached [3]: 2 h | time by which levels reached baseline [3]: ≤ 8 h

average area under the curve AUC0-9hr [5]: 47.78 ng·h/mL
Structure (SMILES): COc1cc(/C=C/C(=O)CC(=O)/C=C/c2ccc(O)c(OC)c2)ccc1O [Curcumin powder, Curcumin]
dissolution profile in words [4]: very little is micronized or released at the gastric pH

dissolution of dose in 4 hours [6]: 100% | average area under the curve AUC0-24hr for free Resveratrol [7]: 2290 ng·h/mL
Structure (SMILES): Oc1ccc(/C=C/c2cc(O)cc(O)c2)cc1 [Resveratrol powder, 3,4′,5-trihydroxy-trans-stilbene]
